Patent US20230263822A1, “MODULATION OF FACTOR 11 EXPRESSION” (Ionis Pharmaceuticals, Inc., priority 2008, published 2023)

Tests used:
[1] = test system: blood coagulation; assay: PT and aPTT, combination with warfarin (Example 21); assay type: in vivo, BALB/c mice
Protocol: Plasma was collected from each group 5 days after the last dose was administered. […] In a final group of BALB/c mice, PBS was administered subcutaneously twice a week for three weeks, as a control. Plasma was collected 5 days after the last PBS treatment.
PT and aPTT values provided in Table 33 are reported as International Normalized Ratio (INR) values.

[2] = test system: platelet factor-4 (PF-4); assay: Thrombus formation by PF-4 real-time PCR, FeCl3 induced venous thrombosis model vs warfarin (Example 11); assay type: in vivo, BALB/c mice; details: for PF-4 in vena cava, percentage as compared to PBS controls (thrombus formation): + FeCl3
Protocol: (§1) Two control groups of BALB/c mice were treated with PBS, administered subcutaneously twice a week for 3 weeks. Two days after the last dose of PBS, mice in both groups were anesthetized with 150 mg/kg ketamine mixed with 10 mg/kg xylazine administered by intraperitoneal injection. Thrombus formation was induced with FeCl3 in all groups of mice except the first control group.
(§2) In mice undergoing FeCl3 treatment, thrombus formation was induced by applying a piece of filter paper (2×4 mm) pre-saturated with 10% FeCl3 solution directly on the vena cava. After 3 minutes of exposure, the filter paper was removed. Thirty minutes after the filter paper application, a fixed length of the vein containing the thrombus was dissected out for platelet analysis. Liver was collected for RNA analysis.
Real-time PCR quantification of platelet factor-4 (PF-4) was used to quantify platelets in the vena cava as a measure of thrombus formation.

[3] = Collagenase-induced intracerebral hemorrhage model: hemorrhage volume, neurologic deficit score, mortality (Example 25); assay type: in vivo, BALB/c mice; details: ISIS oligonucleotides 40 mg/kg s.c., warfarin 2 mg/kg intraperitoneally, twice a week for two weeks
Protocol: In a first cohort, ISIS 404071 was administered subcutaneously to BALB/c mice twice a week for two weeks at a dose 40 mg/kg. […] In a third cohort, ISIS 421208 ([…], 8 mismatches to murine Factor 11, incorporated herein as SEQ ID NO: 14) was administered subcutaneously to BALB/c mice twice a week for two weeks at a dose 40 mg/kg. In a fourth cohort, PBS was administered to BALB/c mice twice a week for two weeks.
Two days after receiving their final dose, all mice in all cohorts were anesthetized with […] of avertin. Next, the mice were injected at −1 mm AP, 1 mm R ML, −4 mm DV from bregma flat skull with a 10 μL Hamilton syringe containing 0.075 U collagenase (150 U/mL). Collagenase was delivered over 5 minutes and the needle was kept in place for an additional 5 minutes to prevent reflux. The mice were then analyzed for hemorrhagic size, neurologic deficit score, and mortality.
Table 37 presents the hemorrhage volume detected in mice after collagenase treatment, Table 38 presents the neurologic deficit score of the mice, and Table 39 presents the mortality rate of the mice. Neurological deficit is measured by a standard scoring system where no deficiency is zero and severe deficit is five.

[4] = test system: blood coagulation; assay: PT and aPTT vs warfarin (Example 13); assay type: in vivo, BALB/c mice; details: for aPTT INR / PT INR: PPP two days after final dose
Protocol: In a control group, BALB/c mice were treated with PBS, administered subcutaneously mice twice a week for 3 weeks.
Two days after the final dose was administered, PPP was collected and PT and aPTT assays were performed.
PT and aPTT values provided in Table 16 are reported as International Normalized Ratio (INR) values. […] This ratio was then raised to the power of the International Sensitivity Index (ISI) of the tissue factor used.

[5] = Tail bleeding assay vs warfarin (Example 12)
Protocol: A separate control group of BALB/c mice was treated with PBS, administered subcutaneously twice a week for 3 weeks.
Mice were anesthetized in the chamber with isoflurane and a small piece of tail (approximately 4 mm from the tip) was cut with sterile scissors. The tail cut was immediately placed in a 15 mL Falcon tube filled with approximately 10 mL of 0.9% NaCl buffer solution warmed to 37° C. The blood was collected over the course of 40 minutes. The saline filled tubes were weighed both before and after bleeding.

[6] = test system: Factor 11 mRNA; assay: Factor 11 mRNA in liver, FeCl3 induced venous thrombosis model vs warfarin (Example 11); assay type: in vivo, BALB/c mice; details: FeCl3 induced VT model; ISIS 404071 1.25-40 mg/kg s.c. twice a week 3 weeks; warfarin 0.5-5 mg/kg daily 6 days
Protocol: as §1, §2
RNA was extracted from liver tissue for real-time PCR analysis of Factor 11.

[7] = test system: mesenteric vein thrombosis; assay: Mesenteric vein thrombosis, intravital microscopy (Example 22); assay type: in vivo; details: C57BL/6 mice, 50 mg/kg s.c. twice a week for three weeks, 10% FeCl3 on mesenteric vein
Protocol: In a first cohort, ISIS 404071 was administered subcutaneously to C57BL/6 mice twice a week for three weeks at a dose of 50 mg/kg. In a second cohort, a control oligonucleotide, ISIS 405277 ([…]; antisense oligonucleotide for Factor 2), incorporated herein as SEQ ID NO: 12 was administered subcutaneously to C57Bl/6 mice twice a week for three weeks at a dose of 50 mg/kg.
Blood was collected from the retro-orbital venous plexus of naïve C57BL/6 mice by puncture and collected in polypropylene tubes containing 300 μl of heparin (30 U/ml). Platelet rich plasma (PRP) was obtained by centrifugation at 1000 rpm for 5 min. The PRP was transferred to fresh tubes containing 2 μl of Prostaglandin I2 (PGI2) (2 μg/ml) and incubated at 37° C. for 5 min. After centrifugation at 2600 rpm, pellets were resuspended in 1 ml modified Tyrode's-HEPES buffer (137 mM NaCl, 0.3 mM Na2HPO4, 2 mM KCl, 12 mM NaHCO3, 5 mM HEPES, 5 mM glucose, 0.35% BSA, pH 7.2) containing 2 μl of PGI2 and incubated at 37° C. for 5 min. The suspended pellet was centrifuged at 2600 rpm for 5 min. To remove PGI2, the washing step was repeated twice and platelets were fluorescently labeled with calcein AM 2.5 μg/mL (Molecular Probes, Eugene, Oreg.) for 10 min at room temperature.
Fluorescently-labeled platelets were injected intravenously in ISIS 404071 treated and control oligonucleotide treated C57BL/6 mice. […] The exposed mesentery was kept moist throughout the experiment by periodic superfusion with warmed (37° C.) PBS. The mesentery was transluminated with a 12V, 100 W, DC stabilized source. Veins were visualized using a Zeiss (Germany) Axiovert 135 inverted microscope (Objective 32X) connected to an SVHS video recorder (AG-6730; Panasonic, Tokyo, Japan) using a CCD video camera (Hamamatsu Photonic Systems, Hamamatsu City, Japan). Centerline erythrocyte velocity (Vrbc) was measured using an optical Doppler velocimeter (Microcirculation Research Institute, Texas A&M College of Medicine, College Station, Tex.). Venular shear rate (τ) was calculated based on Poiseuille's Law for a newtonian fluid, τ=8(Vmean/Dv), where Dv is the diameter of the venule and Vmean is estimated from the measured Vrbc using the empirical correlation Vmean=Vrbc/1.6.
Mesenteric vein thrombosis was performed two days after the last antisense oligonucleotide injection. Thrombosis was induced by applying Whatman paper soaked in a 10% FeCl3 solution for 5 minutes on the mesenteric vein. The vein was monitored for 40 minutes, or until occlusion. The elapsed time before the first thrombus 30-50 μm in diameter and the elapsed time before blood stopped flowing for 30 seconds were observed.

[8] = BALB/c mice, ISIS 404071 25 or 50 mg/kg, warfarin 2 mg/kg
[9] = Warfarin 2 mg/kg once daily for 5 days
[10] = Warfarin 0.5 mg/kg intraperitoneally daily for 6 days
[11] = Warfarin 1 mg/kg intraperitoneally daily for 6 days
[12] = Warfarin 2 mg/kg intraperitoneally daily for 6 days
[13] = Warfarin 3 mg/kg intraperitoneally daily for 6 days
[14] = Warfarin 4 mg/kg intraperitoneally daily for 6 days
[15] = Warfarin 5 mg/kg intraperitoneally daily for 6 days
[16] = BALB/c mice, ISIS 404071 1.25-40 mg/kg, warfarin 0.5-5 mg/kg

CC(=O)CC(c1ccccc1)c1c(O)c2ccccc2oc1=O (centres unmarked) [warfarin]
PT [1, 8]: increase PT
aPTT [1, 8]: affected
PT INR [1, 9]: 21.33 INR
aPTT INR [1, 9]: 2.52 INR
PF-4 in vena cava as measure of thrombus formation ([2]; FeCl3 induced VT model, vs PBS control): reduction of PF-4 in comparison to the PBS control for dosages of 2 mg/kg and higher
PF-4 in vena cava, percentage as compared to PBS controls (thrombus formation) [2, 10]: 128%
PF-4 in vena cava, percentage as compared to PBS controls (thrombus formation) [2, 11]: 124%
PF-4 in vena cava, percentage as compared to PBS controls (thrombus formation) [2, 12]: 80%
PF-4 in vena cava, percentage as compared to PBS controls (thrombus formation) [2, 13]: 21%
PF-4 in vena cava, percentage as compared to PBS controls (thrombus formation) [2, 14]: 12%
PF-4 in vena cava, percentage as compared to PBS controls (thrombus formation) [2, 15]: 33%
% mortality after collagenase treatment [3]: 80%
PT [4, 16]: significantly prolonged at every dosage
aPTT [4, 16]: prolonged, particularly at dosages of 1 mg/kg and higher
aPTT INR [4, 10]: 1.10 INR
PT INR [4, 11]: 2.03 INR
aPTT INR [4, 11]: 1.31 INR
PT INR [4, 12]: 2.77 INR
aPTT INR [4, 12]: 1.54 INR
PT INR [4, 13]: 22.76 INR
aPTT INR [4, 13]: 2.90 INR
PT INR [4, 14]: 6.74 INR
aPTT INR [4, 14]: 2.18 INR
PT INR [4, 15]: 9.20 INR
aPTT INR [4, 15]: 2.29 INR
bleeding in tail bleeding assay ([5]; BALB/c mice, compared to PBS treated mice): did increase bleeding
Blood (tail bleeding, collected over 40 minutes) [5, 10]: 0.07 g
Blood (tail bleeding, collected over 40 minutes) [5, 11]: 0.35 g
Blood (tail bleeding, collected over 40 minutes) [5, 12]: 0.39 g
Blood (tail bleeding, collected over 40 minutes) [5, 13]: 0.51 g
Blood (tail bleeding, collected over 40 minutes) [5, 14]: 0.52 g
Blood (tail bleeding, collected over 40 minutes) [5, 15]: 0.76 g
Factor 11 mRNA in liver vs PBS control [6]: did not result in significant reduction of Factor 11

ISIS 405277: control oligonucleotide AAGGACCTACACTATGGAAT; antisense oligonucleotide for Factor 2 (listed as DNA, chemistry not given here) [reference compound]
time of occlusion (occlusive thrombi) [7]: 19.3 ± 0.8 min
time of thrombus formation (30 μm in diameter) [7]: 8.9 ± 0.6 min
